Results: ChEMBL document CHEMBL1201862, “PubChem BioAssay data set” (2004)
Where a name gives a salt, the structure may show the parent alone.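 Following 48 hours of exposure in 96-well plates, responses at five concentrations were used to interpolate endpoints linearly. Abbreviation: GI50, concentration required for 50% inhibition of growth.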 Activity calls are given as the source filed them. No stated cut-off is given here; in the data, active = GI50 up to about 1.1 µM and inactive = higher.

Assays:
Test in all cases: inhibition of tumour cell growth, NCI panel, 48 h
SF-295 = tested on: SF-295
RXF 393 = tested on: RXF 393
OVCAR-3 = tested on: OVCAR-3
CAKI-1 = tested on: CAKI-1
KM12 = tested on: KM12
SN12C = tested on: SN12C
SK-MEL-2 = tested on: SK-MEL-2
SK-MEL-5 = tested on: SK-MEL-5
UO-31 = tested on: UO-31
A498 = tested on: A498
MCF7 = tested on: MCF7
SNB-75 = tested on: SNB-75
K562 = tested on: K562
HOP-92 = tested on: HOP-92
M14 = tested on: M14
MDA-MB-435 = tested on: MDA-MB-435
DU-145 = tested on: DU-145
NCI/ADR-RES = tested on: NCI/ADR-RES
ACHN = tested on: ACHN
SR = tested on: SR

Measured: GI50

COc1cccc2c1C(=O)c1c(O)c3c(c(O)c1C2=O)C[C@](O)(C(=O)CO)CC3OC1CC(N)C(OC2CCCCO2)C(C)O1 (some centres not stated)
active: SF-295 0.0483 µM | RXF 393 0.43 µM | OVCAR-3 0.828 µM | CAKI-1 0.0353 µM | KM12 0.375 µM | SN12C 0.148 µM | SK-MEL-2 1.05 µM | SK-MEL-5 0.115 µM | A498 < 0.0411 µM | MCF7 0.0311 µM | SNB-75 0.243 µM | K562 0.188 µM | HOP-92 0.239 µM
inactive: UO-31 1.48 µM

NNc1[nH]c(=S)[nH]c1C(N)=O
inactive: SF-295 > 100 µM | RXF 393 > 100 µM | OVCAR-3 > 100 µM | KM12 > 100 µM | SN12C > 100 µM | SK-MEL-2 > 100 µM | M14 > 100 µM | SK-MEL-5 > 100 µM | MDA-MB-435 > 100 µM | DU-145 > 100 µM | UO-31 > 100 µM | A498 > 100 µM | MCF7 > 100 µM | SNB-75 > 100 µM | NCI/ADR-RES > 100 µM

CCC1=CC2CN3CCc4c([nH]c5ccccc45)C(C(=O)OC)(C2)C13 (configuration not stated)
inactive: SF-295 45.2 µM | RXF 393 35.7 µM | OVCAR-3 42.8 µM | CAKI-1 20.8 µM | KM12 20 µM | SN12C 47.4 µM | SK-MEL-2 67.8 µM | SK-MEL-5 40.7 µM | UO-31 32.2 µM | A498 48.1 µM | MCF7 44.6 µM | SNB-75 48.4 µM | K562 39.2 µM | NCI/ADR-RES 45.5 µM | HOP-92 12.4 µM

CC[C@@]1(O)C(=O)OCc2c1cc1n(c2=O)Cc2cc3c(CN(C)C)c(O)ccc3nc2-1 [TOPOTECAN HYDROCHLORIDE]
active: SF-295 0.0148 µM | RXF 393 0.0395 µM | OVCAR-3 0.24 µM | CAKI-1 0.015 µM | KM12 0.518 µM | SN12C 0.0214 µM | SK-MEL-5 0.0325 µM | MDA-MB-435 0.159 µM | ACHN 0.0237 µM | A498 0.11 µM | MCF7 0.0149 µM | SNB-75 0.0215 µM | K562 0.0592 µM | NCI/ADR-RES 0.193 µM | HOP-92 0.0318 µM

O=c1c2cn[nH]c2nc2scc(-c3ccc(Cl)cc3)n12
inactive: SF-295 > 100 µM | RXF 393 > 100 µM | OVCAR-3 > 100 µM | CAKI-1 > 100 µM | KM12 > 100 µM | SN12C > 100 µM | SK-MEL-2 53.6 µM | M14 > 100 µM | SK-MEL-5 > 100 µM | MDA-MB-435 > 100 µM | ACHN > 100 µM | UO-31 > 100 µM | MCF7 > 100 µM | SNB-75 16.9 µM | K562 > 100 µM | SR > 100 µM | NCI/ADR-RES > 100 µM

O=C1C2=Cc3ccccc3OC2(O)Oc2ccc(O)cc21 (configuration not stated)
inactive: SF-295 > 100 µM | RXF 393 > 100 µM | OVCAR-3 36.7 µM | CAKI-1 48.4 µM | KM12 > 100 µM | SN12C > 100 µM | SK-MEL-2 > 100 µM | M14 > 100 µM | SK-MEL-5 44.1 µM | MDA-MB-435 > 100 µM | ACHN 15.8 µM | DU-145 > 100 µM | A498 > 100 µM | MCF7 > 100 µM | SNB-75 35.9 µM | K562 28.1 µM | NCI/ADR-RES 49.9 µM | HOP-92 46.8 µM

COC(=O)Nc1nc(=O)c2cc(OC)c(OC)cc2[nH]1
inactive: SF-295 4.66 µM | OVCAR-3 > 100 µM | CAKI-1 20.2 µM | KM12 5.31 µM | SN12C 64.9 µM | SK-MEL-2 > 100 µM | M14 > 100 µM | SK-MEL-5 6.35 µM | ACHN > 100 µM | DU-145 32.7 µM | UO-31 49.4 µM | A498 71.9 µM | MCF7 6.15 µM | SNB-75 11.6 µM | K562 3.59 µM | SR > 100 µM | NCI/ADR-RES 5.47 µM

C/C(Cc1ccc2c(c1)OCO2)=N\N=c1\sc2ccccc2n1C
inactive: SF-295 > 100 µM | RXF 393 > 100 µM | OVCAR-3 > 100 µM | CAKI-1 > 100 µM | KM12 > 100 µM | SN12C > 100 µM | SK-MEL-2 > 100 µM | M14 > 100 µM | SK-MEL-5 45.2 µM | MDA-MB-435 > 100 µM | ACHN > 100 µM | DU-145 > 100 µM | UO-31 > 100 µM | A498 > 100 µM | MCF7 72.9 µM | K562 > 100 µM | NCI/ADR-RES > 100 µM | HOP-92 84.9 µM

O=C1Nc2ccccc2/C1=N/Nc1nc(-c2ccccc2)cs1
inactive: SF-295 24.5 µM | OVCAR-3 26.4 µM | CAKI-1 18.3 µM | KM12 30.3 µM | SN12C 27.1 µM | SK-MEL-2 84.1 µM | M14 23.1 µM | SK-MEL-5 25.8 µM | MDA-MB-435 > 100 µM | ACHN 24.5 µM | DU-145 35.5 µM | UO-31 24.7 µM | MCF7 27.2 µM | SNB-75 8.63 µM | NCI/ADR-RES 20.5 µM | HOP-92 35.7 µM

COc1ccc(/C=C\c2cc(OC)c(OC)c(OC)c2)c(O)c1O [COMBRETASTATIN A-1]
active: SF-295 0.05 µM | CAKI-1 0.238 µM | KM12 0.0658 µM | SN12C 0.256 µM | SK-MEL-2 0.0451 µM | M14 0.0953 µM | SK-MEL-5 0.05 µM | MDA-MB-435 < 0.01 µM | ACHN 0.203 µM | DU-145 0.0127 µM | UO-31 0.91 µM | MCF7 < 0.01 µM | K562 0.05 µM | HOP-92 0.112 µM
inactive: SNB-75 1.31 µM | SR 2.07 µM

COc1ccc(-c2cc(O)c3cccnc3n2)cc1
inactive: RXF 393 44.5 µM | CAKI-1 17.9 µM | KM12 33.7 µM | SN12C 36.7 µM | SK-MEL-2 83.8 µM | M14 28.3 µM | ACHN 53.7 µM | DU-145 64.6 µM | UO-31 54.6 µM | A498 63.5 µM | MCF7 19 µM | K562 25.8 µM | NCI/ADR-RES 47.6 µM

NC1=NC(c2ccccc2)CC(c2cc(Cl)cc(Br)c2O)=N1 (configuration not stated)
inactive: SF-295 10.9 µM | RXF 393 4.36 µM | OVCAR-3 15.8 µM | CAKI-1 13.3 µM | KM12 11 µM | SN12C 13.4 µM | SK-MEL-2 4.59 µM | M14 14.7 µM | SK-MEL-5 11.7 µM | ACHN 16.9 µM | UO-31 16.4 µM | A498 16.4 µM | MCF7 2.44 µM | SNB-75 14 µM | K562 3 µM | SR 6.43 µM | NCI/ADR-RES 9.35 µM | HOP-92 18 µM

Nc1ncnc2c(C3OC(CO)C(O)C3O)n[nH]c12 (configuration not stated)
inactive: SK-MEL-5 1.41 µM
active: SF-295 0.427 µM | RXF 393 0.201 µM | KM12 0.38 µM | SN12C 0.0652 µM | SK-MEL-2 0.0863 µM | UO-31 0.0551 µM | A498 0.484 µM | MCF7 0.0698 µM | SNB-75 0.196 µM | K562 0.0741 µM | NCI/ADR-RES 0.076 µM | HOP-92 0.0513 µM

C[Si](C)(C)C1=C2C(=O)c3ccccc3C(=O)C2=C([Si](C)(C)C)[C@@H]2CCCC[C@H]12
inactive: SF-295 > 100 µM | RXF 393 > 100 µM | OVCAR-3 > 100 µM | CAKI-1 > 100 µM | SN12C > 100 µM | SK-MEL-2 > 100 µM | M14 > 100 µM | SK-MEL-5 > 100 µM | MDA-MB-435 > 100 µM | ACHN > 100 µM | DU-145 > 100 µM | UO-31 > 100 µM | A498 > 100 µM | MCF7 > 100 µM | K562 > 100 µM | SR > 100 µM | HOP-92 > 100 µM

CCOP(=O)(OCC)C(c1ccc(F)cc1)N(C(=O)NC(F)(F)F)c1ccc(F)cc1 (configuration not stated)
inactive: SF-295 > 100 µM | RXF 393 > 100 µM | OVCAR-3 > 100 µM | CAKI-1 > 100 µM | KM12 > 100 µM | SN12C > 100 µM | M14 > 100 µM | SK-MEL-5 > 100 µM | MDA-MB-435 > 100 µM | ACHN > 100 µM | DU-145 > 100 µM | UO-31 > 100 µM | MCF7 > 100 µM | SNB-75 > 100 µM | K562 > 100 µM | SR > 100 µM | NCI/ADR-RES > 100 µM

COc1cc(OC)c2c(O)cc(CC(C)O)cc2c1 (configuration not stated)
inactive: SF-295 > 100 µM | RXF 393 > 100 µM | OVCAR-3 > 100 µM | CAKI-1 > 100 µM | KM12 > 100 µM | SN12C > 100 µM | SK-MEL-2 > 100 µM | M14 > 100 µM | SK-MEL-5 > 100 µM | ACHN > 100 µM | UO-31 > 100 µM | A498 > 100 µM | SNB-75 > 100 µM | K562 > 100 µM | SR > 100 µM | HOP-92 > 100 µM

Cc1cc(C#N)c(Nc2ccc(F)cc2[N+](=O)[O-])s1
inactive: SF-295 30.8 µM | RXF 393 20.2 µM | OVCAR-3 > 100 µM | CAKI-1 84.9 µM | KM12 > 100 µM | SN12C > 100 µM | M14 71.1 µM | MDA-MB-435 > 100 µM | ACHN 83.8 µM | DU-145 > 100 µM | UO-31 > 100 µM | A498 > 100 µM | SNB-75 21.3 µM | K562 > 100 µM | SR > 100 µM | NCI/ADR-RES > 100 µM | HOP-92 33.4 µM
